The record followed here is US20230242654A1, “REAGENTS FOR EXPANDING CELLS EXPRESSING RECOMBINANT RECEPTORS” (Juno Therapeutics, Inc., priority 2017, published 2023).

Experiment [1] has as its system anti-BCMA CAR T cells. Put plainly: Cytokine production after 24 hours BCMA bead stimulation with or without lenalidomide. The class given is cell-based, human. As to the method:
In another study, recombinant human BCMA-conjugated beads were used to stimulate CAR T cells at various concentrations to titrate the magnitude of stimulation, either low ([…]), medium ([…]), and high (200 μg/mL) stimulation. […] Cells were stimulated with BCMA conjugated beads for 24 hours in the presence of 0.1 μM or 1.0 μM lenalidomide, or vehicle control. A protein transport inhibitor was added in the final hours of incubation, and cells were stained for intracellular IL-2, IFN-γ, and TNF-α.

The test system of experiment [2] is RPMI-8226. Nature of the experiment: Serial restimulation with BCMA-conjugated beads, then cytolytic activity. The experiment is classed as cell-based. As to the method:
Anti-BCMA CAR T cell compositions were generated from three different donors, each containing T cells expressing the same anti-BCMA CAR, thawed, and were incubated for seven days with beads (diameter about 4.5 μm) from a 50 μg/mL BCMA-conjugated bead composition generated as described in Example 1 at a 1:1 ratio of beads to cells. The incubation was carried out in the presence of 5 μM lenalidomide or in the absence of lenalidomide (vehicle control). Cells were harvested after 7 days and replated for three further rounds up to 28 days, each round involving resetting to initial seeding density and incubating for an additional 7 days in the presence of the same concentration of lenalidomide.
At each reset after the pretreatment, cytolytic activity was assessed by incubation with the BCMA-expressing target cell line RPMI-8226 (labeled with NucLight Red (NLR)) at an effector to target cell (E:T) ratio of 1:1 in the further presence of or absence of lenalidomide. Cytolytic activity was assessed by measuring the loss of viable target cells over a period of up to 80-150 hours, as determined by red fluorescent signal (using the IncuCyte® Live Cell Analysis System, Essen Bioscience). Cells from each condition were plated in triplicate. The % cell killing compared to vehicle only control (set at 100%) was determined.

Experiment [3] concerns anti-BCMA CAR+ T cells. Put plainly: Surface markers and proliferation at different T cell:bead ratios with or without lenalidomide. The class given is cell-based, human. On the procedure: In another experiment, approximately 1.5×10^6 CAR+ T cells, prepared as described above, were added to wells of a 12-well plate and were incubated with beads from a 200 μg BCMA-conjugated bead composition at a ratio of CAR+ T cell to BCMA-conjugated bead of 1:0.3, 1:1 or 1:3 (approximately 0.5×10^6, 1.5×10^6, and 4.5×10^6 beads per well, respectively). As controls, 5 μg/mL anti-CD3 antibody was coated to wells (sub-optimal concentration for stimulation) or cells were seeded in the absence of any agent (no stimulation control). Each condition was incubated in the presence or absence of 5 μM lenalidomide. […] […] There also was a slight increase in PD-1 surface expression on CD8+ cells when stimulated with BCMA-conjugated beads at the higher BCMA bead concentration provided at the ratio of 1:3 CAR+ T cells to beads. The results are consistent with a finding that the BCMA concentration present during the incubation can differentially modulate surface marker expression on the CAR+ T cells.

The subject of experiment [4] is anti-BCMA CAR+ T cells. Nature of the experiment: Expansion of EGFRt+ cells after BCMA-conjugated bead stimulation. The experiment is classed as cell-based, human. As to conditions: 5 μM lenalidomide. As to the method: Cryofrozen anti-BCMA CAR T cells, produced substantially as described in Example 2 and formulated at a 1:1 ratio of CD4+ and CD8+ T cells, were thawed. Unless otherwise indicated, beads (diameter about 4.5 μm) from a 5 μg/ml or 50 μg/ml BCMA-conjugated bead composition, generated as described in Example 1, were added to the wells at a ratio of T cells to beads of 1:2 in the presence or absence of 5 μM lenalidomide. Cells were incubated up to 14 days and analyzed at various time points for cytokine secretion, cell expansion by flow cytometry for the EGFRt surrogate marker, and for cytolytic activity.
Four days and seven days after addition of BCMA-conjugated beads, the incubated cells were stained with CD4 or CD8 and with an anti-EGFR antibody to determine the percentage of cells positive for EGFRt as a surrogate for CAR+ T cells. At the time of plating, 26% of the CD4+ cells expressed anti-BCMA CAR and 39% of the CD8+ cells expressed anti-BCMA CAR as determined by staining with BCMA-Fc. The percent of EGFRt+CD4+ T cells increased from about 26% at the initiation of the incubation to greater than 40% by day 4 (FIG. 9J) and greater than 60% by day 7 (FIG. 9K) when the cells were incubated in the presence of beads from a 50 μg/mL BCMA-conjugated bead composition. […]

The mark [5] stands for this setting: medium stimulation (50 μg BCMA beads), 24 hours, 1 μM.

Turning to `Nc1cccc2c1CN(C1CCC(=O)NC1=O)C2=O` (stereo not shown) [lenalidomide], the “percentage of IFN-γ+ and TNF-α+ intracellular staining” value in experiment [1] (0.1 μM or 1.0 μM, all stimulation levels, CD4+ and CD8+) is “increased the percentage”. Moreover, the “percentage of IL-2+ CAR+ T cells” value in experiment [1] (5-μg stimulation) is listed as “increasing the percentage”; in experiment [1] (50-μg and 200-μg stimulation), “decreasing the percentage”. Also, in experiment [1] (absence of stimulation), the “CAR T cytokine production” value is “had no effect on CAR T cytokine production”. In addition, the “increase in IL-2 concentration compared with vehicle control” value in experiment [1] (setting [5]) came out at 200%. Besides, in experiment [1] (setting [5]), the “increase in TNF-α concentration compared with vehicle control” value turned out to be 200%. Moreover, the “IFN-γ concentration compared with vehicle control” value in experiment [1] (medium stimulation, 24 hours) is recorded as “donor-dependent increases”. Also, the killing efficacy result is on record as “increased killing efficacy” in experiment [2] (further donor (FIG. 10B), all time points) and “overall decrease in killing efficacy” in experiment [2] (preincubated with lenalidomide 14 or 21 days compared to day 7). Also, the cytolytic activity entry in experiment [2] (preincubated with 5 μM lenalidomide 7 or 14 days, exemplary donor) is “exhibited greater cytolytic activity”. Besides, in experiment [3] (5 μM, three days with 200 μg BCMA beads at 1:1, versus vehicle), the “proliferative capacity of T cells (CTV)” value was “increased the proliferative capacity of T cells”. Further, the “surface expression of CD25 in CD4+ and CD8+ T cells” value in experiment [3] (lenalidomide present during BCMA bead or anti-CD3 stimulation) is “further increased the extent of surface expression of CD25”. Besides, the “extent of CAR+ T cell expansion” value in experiment [4] is “did not substantially impact the extent of CAR+ T cell expansion”.
